Key:
Format in all cases: cell-based, mouse
Th17 cells [1] = assay: Whole-transcriptome RNA sequencing of treated CD4+ T cells
Description: Total RNA extractions for RNA-seq were performed using the mirVana kit (Applied Biosystems). RNA concentration was measured using the Qubit RNA broad range assay in the Qubit Flurometer (Invitrogen) and RNA integrity was determined with Eukaryote Total RNA Nano Series II ChIP on a 2100 Bioanalyzer (Agilent). RNA-seq libraries were prepared using TruSeq RNA sample preparation kit (Illumina). In brief, oligo-dT purified mRNA was fragmented and subjected to first and second strand cDNA synthesis. cDNA fragments were blunt ended, ligated to Illumina adaptors and PCR amplified to enrich for the fragments ligated to adaptors. The resulting cDNA libraries were verified and quantified on Agilent Bioanalyzer and single-end 96 cycle sequencing was conducted (Illumina).
Reads were aligned to the mm10 genome and the GRCm38 v87 transcriptome with STAR v2.5.2a using default parameters and output tracks normalized by RPM (–outWigNorm RPM). RSEM v1.3 was used to calculate gene counts and TPMs on the transcriptome-aligned reads as previously described[37]. Differential expression analysis was performed in R v3.5.2, using DESeq. 2 v1.22.2. […] Heatmaps were generated with the R package, heatmap. Integrative Genomics Viewer v2.4.19 was used for visualization of normalized bigwig tracks.

eIF2α = assay: Western blot for phosphorylated eIF2α; conditions: 24 hours, compared to DMSO controls
Description: (a) MA-plot showing shrunken log2 fold-changes of detected genes between the DMSO and FGIN-1-27 RNA-seq samples, ranked by average normalized count. Red dots indicate differentially expressed genes at adjusted p-value <0.05. (b) Transcript levels for the indicated genes after 24 hours of treatment with DMSO or FGIN-1-27 quantified by qPCR. The error bars represent SD. (c) Western blot analysis for phosphorylated eIF2α and ATF4 24 hours after treatment with DMSO or FGIN-1-27 (5 and 10 µM). Data are representative of 3 independent experiments. (d) Amino acids in Th17 cells measured 72 hours after treatment with FGIN-1-27. The error bars represent SD. (e) ROS was measured using cell permeant reagent 2′,7′ –dichlorofluorescin diacetate (DCFDA) at 24 hours following treatment with FGIN-1-27. Filled grey histogram-DMSO, dotted line-FGIN-1-27 (10 µM) and dashed line indicates FGIN-1-27 (5 µM). […] Data are normalized using DMSO treated cells as 100% and the error bars represent SD.
Cell lysates were prepared by lysis in RIPA buffer containing protease and phosphatase inhibitors and immunoblotting was performed by standard methods.
(a) W estern blot analysis for phosphorylated eIF2α and ATF4 24 hours after treatment
with DMSO or FGIN-1-27 (5 and 10 µM). […]
(a) Indicated sterols were measured in Th17 cells treated with DMSO or FGIN-1-27 for […]

[2] = test system: reactive oxygen species (ROS); assay: Intracellular ROS with DCFDA; conditions: 24-hour post treatment, 5 and 10 µM
Description: Figure 5 FGIN-1-27 induces amino acid starvation response (AAR). (a) MA-plot showing shrunken log2 fold-changes of detected genes between the DMSO and FGIN-1-27 RNA-seq samples, ranked by average normalized count. […] (b) Transcript levels for the indicated genes after 24 hours of treatment with DMSO or FGIN-1-27 quantified by qPCR. The error bars represent SD. (c) Western blot analysis for phosphorylated eIF2α and ATF4 24 hours after treatment with DMSO or FGIN-1-27 (5 and 10 μM). Data are representative of 3 independent experiments. (d) Amino acids in Th17 cells measured 72 hours after treatment with FGIN-1-27. The error bars represent SD. (e) ROS was measured using cell permeant reagent 2',7' -dichlorofluorescin diacetate (DCFDA) at 24 hours following treatment with FGIN-1-27. Filled grey histogram-DMSO, dotted line-FGIN-1-27 (10 μM) and dashed line indicates FGIN-1-27 (5 μM). (f) Dose response plot showing effect of FGIN-1-27 on intracellular IL-17 after pre-treatment with NAC (1 μM). Data are normalized using DMSO treated cells as 100% and the error bars represent SD. Increased amino acid synthesis and transport is characteristic of the amino acid starvation response (AAR)[20]. […] Induction of ATF4 can be an indication of oxidative stress and we measured reactive oxygen species (ROS) using the cell permeant reagent 2',7' -dichlorofluorescin diacetate (DCFDA).

Th17 cells [3] = assay: Cholesterol panel (sterols) in Th17 cells; conditions: 72 hours; for 7-DHC / 7-HC / -SITO / CAMP / CHOL / COPR / CSTN: Cholestanol / DESM / LANO / LATH / SQUA / STIG / ZYMO: Cell
Description: Specific cholesterol precursors like desmosterol and oxysterols, such as 7β, 27-dihydroxycholesterol (7β, 27-OHC), have been identified as ligands for RORγt[21],[22] and shown to modulate Th17 differentiation. […] Next, we extended our studies to lipid metabolites and profiled the lipidome of Th17 cells treated with DMSO or FGIN-1-27. […]
(a) Indicated sterols were measured in Th17 cells treated with DMSO or FGIN-1-27 for
(1 picture or pasted object on this page, not shown here)

## CCCCCCN(CCCCCC)C(=O)Cc1c(-c2ccc(F)cc2)[nH]c2ccccc12 [FGIN-1-27, N, N-di-n-hexyl 2-(4-fluorophenyl) indole-3-acetamide]
Th17 cells [1]; 24 hours
  genes encoding glycolytic enzymes (hexokinase, phosphofructokinase, pyruvate kinase): significantly down-regulated
Th17 cells [1]; vs DMSO, FDR < 0.05, 24 hours
  differentially expressed genes: 587
eIF2α
  increase in eIF2α phosphorylation: 4.5 fold
[2]
  intracellular ROS levels: dose dependent increase
Th17 cells [3]; vs DMSO
  levels of cholesterol, its precursors and oxysterols: comparable
Th17 cells [3]
  7-DHC: 21.45 nMoles/billion
  7-HC: 0.68 nMoles/billion
  -SITO: 1.81 nMoles/billion
  CAMP: 4.37 nMoles/billion
  CHOL: 1426.96 nMoles/billion
  COPR: 0.37 nMoles/billion
  CSTN: Cholestanol: 2.54 nMoles/billion
  DESM: 26.06 nMoles/billion
  LANO: 0.57 nMoles/billion
  LATH: 10.58 nMoles/billion
  SQUA: 13.58 nMoles/billion
  STIG: 0.09 nMoles/billion
  ZYMO: 0.37 nMoles/billion
Th17 cells [3]; listed as FGIN2
  7-DHC: 29.74 nMoles/billion
  7-HC: 1.01 nMoles/billion
  -SITO: 66.45 nMoles/billion
  CAMP: 6.00 nMoles/billion
  CHOL: 1968.79 nMoles/billion
  COPR: 0.04 nMoles/billion
  CSTN: Cholestanol: 5.53 nMoles/billion
  DESM: 47.55 nMoles/billion
  LANO: 0.96 nMoles/billion
  LATH: 13.90 nMoles/billion
  SQUA: 16.54 nMoles/billion
  STIG: 8.18 nMoles/billion
  ZYMO: 0.44 nMoles/billion
Th17 cells [3]; listed as FGIN3
  7-DHC: 22.18 nMoles/billion
  7-HC: 1.04 nMoles/billion
  -SITO: 2.54 nMoles/billion
  CAMP: 7.76 nMoles/billion
  CHOL: 2113.85 nMoles/billion
  COPR: 0.0757 nMoles/billion
  CSTN: Cholestanol: 4.07 nMoles/billion
  DESM: 37.52 nMoles/billion
  LANO: 0.93 nMoles/billion
  LATH: 15.86 nMoles/billion
  SQUA: 17.48 nMoles/billion
  STIG: 0.73 nMoles/billion
  ZYMO: 0.68 nMoles/billion
Th17 cells [3]; listed as FGIN4
  7-DHC: 17.23 nMoles/billion
  7-HC: 0.75 nMoles/billion
  -SITO: 1.38 nMoles/billion
  CAMP: 4.69 nMoles/billion
  CHOL: 1456.01 nMoles/billion
  COPR: 0.06 nMoles/billion
  CSTN: Cholestanol: 2.93 nMoles/billion
  DESM: 26.10 nMoles/billion
  LANO: 0.61 nMoles/billion
  LATH: 10.88 nMoles/billion
  SQUA: 2.92 nMoles/billion
  STIG: 0.05 nMoles/billion
  ZYMO: 0.40 nMoles/billion
